# The supplement of paper PMC10307832
# How the values were obtained:
# Assay in all cases: relative viability (nuclei count vs DMSO), 5 days (fraction); higher = more cells survive
# [1] = compound: C=CCn1c(=O)c2cnc(Nc3ccc(N4CCN(C)CC4)cc3)nc2n1-c1cccc(C(C)(C)O)n1 [Adavosertib] + COc1cc2c(Oc3ccc(NC(=O)C4(C(=O)Nc5ccc(F)cc5)CC4)cc3F)ccnc2cc1OCCCN1CCOCC1 [Foretinib] (partner 0.25 µM)
# How it was run: (§1)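 For relative viability, nuclei counts in treated wells were divided by those in vehicle wells. Lung cancer cell lines had been pin-tool dosed in 1536-well plates the day after seeding and cultured for 5 days, then fixed and stained in one step (final 0.05% Triton X-100, 1% formaldehyde, 1 ug/ml Hoechst) and imaged at 4×. Doses were one drug alone or a fixed anchor-drug dose plus five library-drug doses (not always all listed) in √10 steps, and values are duplicate-plate medians.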
# [2] = compound: C=CCn1c(=O)c2cnc(Nc3ccc(N4CCN(C)CC4)cc3)nc2n1-c1cccc(C(C)(C)O)n1 [Adavosertib] + CS(=O)(=O)N1CCN(Cc2cc3nc(-c4cccc5[nH]ncc45)nc(N4CCOCC4)c3s2)CC1 [Pictilisib] (partner 1 µM)
# How it was run: as §1
# [3] = compound: COc1nc(N)nc2c1ncn2[C@@H]1O[C@H](CO)[C@@H](O)[C@@H]1O [Nelarabine] + Cc1cc(Nc2cc(N3CCN(C)CC3)nc(Sc3ccc(NC(=O)C4CC4)cc3)n2)n[nH]1 [Tozasertib] (partner 0.1 µM)
# How it was run: as §1
# [4] = compound: COc1nc(N)nc2c1ncn2[C@@H]1O[C@H](CO)[C@@H](O)[C@@H]1O [Nelarabine] + O=C(c1cc(Cc2n[nH]c(=O)c3ccccc23)ccc1F)N1CCN(C(=O)C2CC2)CC1 [Olaparib] (partner 8 µM)
# How it was run: as §1
Cell Line,relative viability ([1]; first compound 0.01 µM),relative viability ([1]; first compound 0.03162 µM),relative viability ([1]; first compound 0.1 µM),relative viability ([1]; first compound 0.3162 µM),relative viability ([2]; first compound 0.01 µM),relative viability ([2]; first compound 0.03162 µM),relative viability ([2]; first compound 0.1 µM),relative viability ([2]; first compound 0.3162 µM),relative viability ([3]; first compound 0.01 µM),relative viability ([3]; first compound 0.03162 µM),relative viability ([3]; first compound 0.1 µM),relative viability ([3]; first compound 0.3162 µM),relative viability ([3]; first compound 1 µM),relative viability ([4]; first compound 0.01 µM),relative viability ([4]; first compound 0.03162 µM),relative viability ([4]; first compound 0.1 µM),relative viability ([4]; first compound 0.3162 µM),relative viability ([4]; first compound 1 µM)
NCI-H1395,0.922,0.932,0.989,0.83,0.545,0.546,0.596,0.635,0.839,0.67,0.814,0.729,0.657,0.465,0.431,0.403,0.464,0.519
LOU-NH91,0.875,0.945,0.943,0.88,0.521,0.508,0.544,0.457,0.787,0.675,0.675,0.673,0.653,0.997,0.922,0.873,0.882,0.925
SW 1573,0.953,0.914,1.13,1.2,0.482,0.525,0.58,0.343,0.167,0.199,0.134,0.23,0.162,0.52,0.469,0.553,0.565,0.66
NCI-H23,1.04,0.891,0.75,0.261,0.504,0.51,0.49,0.236,0.594,0.327,0.377,0.369,0.509,0.32,0.235,0.294,0.33,0.335
NCI-H1993,0.795,0.863,0.83,0.838,0.858,0.818,0.932,0.719,0.662,0.553,0.623,0.586,0.571,1.19,0.993,0.865,0.939,0.984
HARA,0.977,0.892,0.84,0.335,0.409,0.461,0.374,0.269,0.119,0.112,0.0991,0.0991,0.105,0.843,0.569,0.746,0.834,0.636
HCC-366,0.96,0.935,0.924,1.04,0.155,0.143,0.217,0.172,0.0929,0.0947,0.0956,0.17,0.112,0.33,0.327,0.434,0.385,0.389
COR-L 105,0.781,0.872,1.24,0.925,0.415,0.384,0.356,0.393,0.356,0.353,0.302,0.362,0.433,0.554,0.666,0.592,0.697,0.541
LXF-289,1.01,0.973,0.973,1.03,0.786,0.746,0.782,0.788,0.222,0.234,0.173,0.232,0.233,1.2,1.13,1.01,1.04,1.01
NCI-H727,0.689,1.07,0.917,0.831,0.525,0.341,0.359,0.366,0.789,0.816,0.617,0.598,0.694,0.697,0.559,0.636,0.731,0.656
NCI-H2085,0.785,0.954,0.887,0.921,0.491,0.451,0.41,0.519,0.847,0.914,0.733,0.882,0.736,0.815,0.768,0.731,0.802,0.74
A-427,0.929,1.02,1.09,0.851,0.735,0.653,0.684,0.798,0.181,0.204,0.169,0.175,0.181,0.796,0.818,0.812,0.803,0.704
LC-2-ad,0.823,0.995,0.958,0.889,0.455,0.587,0.424,0.37,0.464,0.418,0.414,0.468,0.439,0.748,0.39,0.668,0.753,0.701
LU99A,0.86,0.779,0.771,0.579,0.341,0.303,0.354,0.241,0.287,0.253,0.239,0.264,0.279,0.276,0.239,0.252,0.249,0.26
201T,1.28,1.14,,1.23,0.668,0.683,0.625,0.654,1.12,0.692,0.885,1.08,0.926,0.876,0.835,0.845,0.858,0.835
NCI-H650,1.06,1.01,1.06,0.889,0.926,1.04,1.05,0.805,0.787,0.616,0.694,0.768,0.735,0.525,0.369,0.413,0.402,0.405
